Reference: patent publication US7544365B2, “TRPV1+ sensory neurons control of β-cells stress and islet inflammation in diabetes” (priority 2006, dated 2009)
Entries after “also recorded” stand apart in the source; their conditions may differ.

Legend:
TRPV1 = test: Capsaicin-evoked Ca^2+ responses in dorsal root ganglion neurons; type: cell-based, NOD and NOR mice; settings: NOD DRG neurons compared with NOR, p<0.05
Protocol: Dorsal root ganglia from male NOD, NOR mice and NOD.B6.Idd4-congenic (5-10 wk) were isolated and cultured in F12 medium (Invitrogen) with 10 ng/mL nerve- and 10 ng/mL glial-derived nerve growth factor. Cultures were used 3-5 d after plating. The Ca^2+-sensitive fluorophore, fura-2 (Molecular Probes, Eugene, Oreg.), was used to assess [Ca^2+]i by ratiometric measurement. Excitation (340 and 380 nm) was generated by a xenon arc lamp and passed through a high-speed, computer-controlled, variable-wavelength monochromator. This light was transmitted to the recording dish via a fiberoptic cable. Emitted light was directed through a 510 nm bandpass filter and detected by an intensified CCD camera. Image data were analyzed off-line. Each 340 nm image was divided, on a pixel-by-pixel basis, by the corresponding 380 nm image, producing a ratio. Averaged values of the ratios within each region of interest were plotted as a function of time.

TRPV1^+ neurons [1] = test: Neonatal capsaicin treatment of diabetes-prone NOD mice: insulitis and diabetes development; type: in vivo
From the text: Using immunofluorescence, it was observed that murine islets are associated with meshworks of TRPV1^+ fibers (FIG. 1a). TRPV1 was undetectable in endocrine islet cells by immunofluorescence (FIG. 1a, b) and by RT-PCR of purified NOD islets (FIG. 9). based on this evidence of islet innervation by TRPV1^+ primary afferent sensory neurons, we investigated their possible role in T1D pathogenesis, using neonatal treatment of diabetes-prone NOD mice with capsaicin to permanently remove these neurons (Caterina and Julius, 2001; Jancso et al., 1977). Two day-old NOD mice received capsaicin (50 mg/kg, s.c.) or vehicle (NOD^caps, NOD^ctrl). […] We confirmed the lack of TRPV1 expression in NOD^caps mice, using immunofluorescence (FIG. 1a, b, TRPV1 green), Western blots (8, 12 & 20 wk), and standard hot-plate testing in randomly selected 5-6 wk old or in diabetic animals (FIG. 1c).
(§1) NOD, NOD.scid, BDC2.5 TCR transgenic NOD mice (‘BDC2.5-NOD’), NOD-β2m^null, C57BL/6 (‘B6’), B6-TRPV1^null, NOR NOD×B6 Idd4 congenic mice (NOD.B6-(D11Nds1-D11Mit325)/DelJ) were obtained from the Jackson Laboratories (Bar Harbor, Me.) and maintained under approved protocols in our vivarium (NOD female diabetes incidence: 85-90%). […] Control mice (NOD^ctrl) received 20 μL vehicle (10% ethanol, 10% Tween, 80% saline). In adoptive transfer experiments, splenocytes from 4-6 diabetic NOD females were pooled and 10^7 cells/mouse were injected (100 μL i.v.) into irradiated (300 rad) 6- to 8 wk-old NOD.scid recipients. Diastix strips were used to screen for glucosuria (Bayer HealthCare), diabetes was confirmed by diabetic blood glucose measurements on 2 consecutive days (>13.8 mM/l; SureStep, Life Technologies Inc., Burnaby, British Columbia, Canada).
Frozen murine pancreas sections were fixed in 4% paraformaldehyde, blocked with 5% normal donkey serum (Jackson), and stained with polyclonal rat or goat antibodies against GFAP (Signet Pathology Systems, Dedham, Mass.), polyclonal rabbit anti-TRPV1 (Oncogene) or guinea-pig antibody against insulin (DAKO, Carpinteria, Calif.). Bound antibodies were detected with biotinylated donkey anti-guinea pig or rat IgG (1:200, Jackson), Streptavidin AlexaFluor 546 or 633 (1:300, Molecular Probes, Eugene, Oreg.), and FITC conjugated donkey anti-rabbit IgG (1:25, Jackson). […] TRPV1 staining was performed on snap-frozen sections of NOD female pancreas with an overnight incubation of primary antibody at 4° C. To score insulitis severity, pancreata were fixed in 10% buffered formalin for a minimum of 24 hr. Histological sections were stained with hematoxylin and eosin and three blinded observers scored at the following scale: 0, normal islet; 1, peri-insulitis or encroachment of <25% of the islet surface area; 2, infiltration of 25-50% of the islet surface area; 3, infiltration of >50% of the islet surface area (Winer et al., 2003). Spleen and lymph node cells were stained with either 2 nM PE-conjugated NRP-V7/H-2K^d or TUM/H-2K^d tetramers, the latter a negative control, in FACS buffer (1% v/v FBS, 0.1% w/v NaN3 in PBS) at 4° C. for 1 hr, followed by staining with FITC-conjugated anti-CD8 mAb (clone 53-6.7; […]) and PerCP-conjugated anti-B 220 Ab (clone RA6-3B2; […], both from BD Pharmingen). Tetramer positivity was analyzed on gated CD8+B220− cells and reported as percentage of cells binding the NRP-V7/H-2K^d tetramer minus the percentage of cells binding the negative control, TUM/H-2K^d tetramer.

TRPV1^+ neurons [2] = test: Systemic and pancreatic T cell development and function in NOD^caps versus NOD^ctrl mice; type: in vivo
Protocol: Delayed type hypersensitivity (DTH): […] Abdomens were shaved and 100 μl of the allergen were applied. 6 d later, the baseline thickness of right ears were measured by gauge before application of 10 μl 1% TNCB in oil or carrier only. Ear thickness was re-measured in sensitized and naïve animals 24 hr later. […] Calbiochem, San Diego, Calif.) were purchased, other antigens were previously generated and described (Winer et al., 2003). After 72 hrs, cultures were pulsed (1 μCi, [3H]thymidine/18 hrs) and counted by liquid scintillation. Lymph node assays were similar, but used 2×10^5 lymph node cells plus 2×10^5 irradiated (1,100 rad), syngeneic splenocytes/well. […] Bound antibodies were detected with biotinylated donkey anti-guinea pig or rat IgG (1:200, Jackson), Streptavidin AlexaFluor 546 or 633 (1:300, Molecular Probes, Eugene, Oreg.), and FITC conjugated donkey anti-rabbit IgG (1:25, Jackson). […] Histological sections were stained with hematoxylin and eosin and three blinded observers scored at the following scale: 0, normal islet; 1, peri-insulitis or encroachment of <25% of the islet surface area; 2, infiltration of 25-50% of the islet surface area; 3, infiltration of >50% of the islet surface area (Winer et al., 2003). […] Live events were collected based on forward- and side-scatter profiles on a FACScan flow cytometer (BD) and analyzed using FlowJo software (Stanford University).

TRPV1^+ sensory neurons = test: Glucose challenge and insulin tolerance after capsaicin removal of TRPV1^+ sensory neurons; type: in vivo, NOD.scid / NOD mice
From the text: We compared measures of β-cell function in untreated and in capsaicin treated NOD.scid mice, and in C57/BL6J (‘B6’) and B6.TRPV1^−/− mice, the latter with a normal complement of sensory afferent neurons but absent TRPV1 expression (Caterina et al., 2000). NOD.scid mice were used to ascertain absence of lymphoid islet infiltration in NOD experiments, CD1 mice provided controls (FIGS. 17A-17C).
as §1

[3] = tested on: BDC2.5 T cell receptor transgenic T cells; test: CFSE dye dilution in vivo clonal expansion of BDC2.5 T cells in pancreatic lymph nodes; design: species or system NOD mice
Protocol: For dye dilution in vivo clonal expansion studies, splenic CD4+ T-cells from NOD-BDC2.5 females were isolated by negative selection (Stemcell Technologies, Vancouver, Canada) and incubated with 2.5 μM CFSE (10′/37° C., Molecular Probes, Eugene, Oreg.) in PBS. Prediabetic (12 wk) NOD females pretreated 12 hr prior with substance P or saline, were injected i.v. with 3×10^6 CFSE-labeled CD4+ T-cells in sterile PBS.
Lymphocytes from thymus, pancreatic/axillary lymph nodes and spleen were stained with FITC, PE, and APC conjugated antibodies to CD3, CD4, CD8, CD44, CD25, CD69 CD62L and FoxP3 (BD Pharmingen, not all combinations are shown). NK-1R and Vβ4 antibodies were obtained from Novus Biologicals (Littleton, Colo.) and Cedarlane (Hornby, Canada), respectively. Live events were collected based on forward- and side-scatter profiles on a FACScan flow cytometer (BD) and analyzed using FlowJo software (Stanford University).

[4] = tested on: activated CD4+ NOD T cells; test: sP response of activated CD4+ NOD T cells in vitro (proliferation); type: cell-based, NOD mice
Protocol: Splenocytes from 3- to 24 wk-old NOD females were cultured (4×10^5 cells/well) in AIM V serum-free medium (Life Technologies) containing antigen (0.002-50 μg/ml), baculovirus-derived human GAD65 (Diamyd Diagnostics, Stockholm, Sweden), human GFAP (>90% pure) and bovine S100b (>98% pure; Calbiochem, San Diego, Calif.) were purchased, other antigens were previously generated and described (Winer et al., 2003). After 72 hrs, cultures were pulsed (1 μCi, [3H]thymidine/18 hrs) and counted by liquid scintillation. Lymph node assays were similar, but used 2×10^5 lymph node cells plus 2×10^5 irradiated (1,100 rad), syngeneic splenocytes/well. To normalize pooled data, we calculated a stimulation index (SI, cpm antigen stimulated/medium control), background counts were <1500 cpm in spleen cell and <1000 cpm in lymph node cultures. In some proliferation studies, plate-bound anti-CD3 (0.001-3 μg/ml; BD PharMingen) and anti-CD28 (0.2 μg/ml; BD PharMingen) were used to stimulate CD4+ T-cells negatively selected from NOD β2m^null splenocytes in the presence of substance P.

[5] = tested on: islet T cell infiltration; test: Intra-arterial pancreas injection of substance P in prediabetic NOD mice (insulitis); type: in vivo
Protocol: (§2) Animals were anaesthetized with isoflurane and the aorta developed with minimal trauma to ligate above and below the celiac artery. A 32G needle was used to inject Evans Blue (3 mg/kg/100 μl; Sigma), substance P (2 nmol/100 μl; Sigma) or saline into the aorta just prior to the celiac branching. Ligations are released after closure of the injection site. For insulitis studies, pancreata from treated mice were obtained 48-72 hr after pancreas injection treatment and histology performed. In diabetes reversal experiments, newly diagnosed NOD female mice were treated with either saline or substance P and followed without exogenous insulin treatment.
Frozen murine pancreas sections were fixed in 4% paraformaldehyde, blocked with 5% normal donkey serum (Jackson), and stained with polyclonal rat or goat antibodies against GFAP (Signet Pathology Systems, Dedham, Mass.), polyclonal rabbit anti-TRPV1 (Oncogene) or guinea-pig antibody against insulin (DAKO, Carpinteria, Calif.). Bound antibodies were detected with biotinylated donkey anti-guinea pig or rat IgG (1:200, Jackson), Streptavidin AlexaFluor 546 or 633 (1:300, Molecular Probes, Eugene, Oreg.), and FITC conjugated donkey anti-rabbit IgG (1:25, Jackson). […] TRPV1 staining was performed on snap-frozen sections of NOD female pancreas with an overnight incubation of primary antibody at 4° C. […]

[6] = Diabetes reversal after pancreatic i.a. substance P in newly diabetic NOD mice; type: in vivo
Protocol: as §2

[7] = systemic (i.v.) injection of the same sP dose
[8] = mice that failed to reverse hyperglycemia, i.a. sP

Compound: COc1cc(CNC(=O)CCCC/C=C/C(C)C)ccc1O [capsaicin]
- drug concentration required for maximum Ca^2+ response, NOD versus NOR DRG neurons (TRPV1): 10 fold
- tolerability of neonatal capsaicin treatment (TRPV1^+ neurons [1]; 50 mg/kg s.c. in 2 day-old mice): viable, fertile, without abnormalities in growth or gross tissue structure, including pancreas; also recorded: no signs of adverse effects
- islets free of lymphocytes (TRPV1^+ neurons [1]; NOD^caps mice (capsaicin 50 mg/kg s.c. at 2 days old), by age 20 wk): More than 70%
- islet infiltrations compared with NOD^ctrl (TRPV1^+ neurons [1]; NOD^caps mice, p<0.0001): significantly reduced
- reduction in final diabetes incidence (TRPV1^+ neurons [1]; neonatal capsaicin treatment, 35 wk plus next 12 wk, n=52 mice/group, p<0.0001): about 80%
- onset of diabetes (TRPV1^+ neurons [1]; neonatal capsaicin treatment, p=0.0002): delayed the onset of diabetes
- fraction of NOD^caps mice in which infiltrated islets were entirely absent (TRPV1^+ neurons [1]; serial sectioning): one third
- regulatory T cell compartment in pancreatic lymph nodes (TRPV1^+ neurons [2]; NOD^caps mice, beyond 12-16 wk of age): maintained their regulatory T cell compartment
- CD8+ and activated CD8+ CD69+ effector T lymphocytes in pancreatic lymph node tissue (TRPV1^+ neurons [2]; NOD^caps versus NOD^ctrl): significantly reduced proportions and absolute numbers
- serum glucose levels after i.p. glucose challenge (TRPV1^+ sensory neurons; 10-12 wk old NOD.scid^caps versus NOD.scid^ctrl, p=0.004): significantly reduced
- insulin production after glucose challenge (TRPV1^+ sensory neurons; NOD.scid^caps versus NOD.scid^ctrl): significantly less insulin production

Compound: substance P
- expansion in pancreatic lymph nodes of BDC2.5 cells pretreated in vitro ([3]; cells in vitro pretreated with sP overnight, p=0.0045): reduced the ability of these cells to expand in pancreatic lymph nodes
- cellularity and clonal expansion of BDC2.5 T cells in pancreatic lymph nodes ([3]; pancreatic i.a. sP 12-16 hr before transfer, analyzed 4 days later, dye dilution, p=0.003): reduced cellularity and clonal expansion
- expansion of BDC2.5 T cells in pancreatic lymph nodes, systemic injection [3, 7]: had no effect on expansion
- cell proliferation and survival [4]: abrogated cell proliferation and survival in a dose-dependent fashion
- islets free of T cell infiltration ([5]; prediabetic NOD, 12 wk of age, within 2d after i.a. sP injection (2 nmoles/kg)): about 80%
- effect on islet T cell infiltration, systemic injection [5, 7]: did not have similar effects
- body weight [6, 8]: preventing the progressive loss of body weight
- insulin sensitivity in non-responding mice [6, 8]: improved insulin sensitivity
- normalization of blood glucose levels ([6]; newly diabetic NOD mice, 2-3 d after diagnosis, pancreatic i.a. sP, without insulin therapy): over half of the i.a. injected diabetics normalized blood glucose levels
- insulin sensitivity ([6]; raising pancreatic sP levels, diabetic NOD mice): dramatically enhanced insulin sensitivity
- time fasting blood glucose remained at near normal levels ([6]; responding mice): 2-8 wk
